Columns and labels:
[1] = target: T1, P2X2/P2X3 heterotrimeric receptor (Homo sapiens) (UniProt Q9UBL9+P56373); test: Antagonist activity against human P2X2/3 receptor expressed in HEK293/1321N1 cells assessed as inhibition of alpha,beta-meATP/ATP-induced calcium influx at 3 uM by Fluo-4 dye based FLIPR assay; type: functional, cell-based
[2] = target: T1, P2X2/P2X3 heterotrimeric receptor (Homo sapiens); test: Antagonist activity against human P2X2/3 receptor expressed in HEK293/1321N1 cells assessed as inhibition of alpha,beta-meATP/ATP-induced calcium influx at 10 uM by Fluo-4 dye based FLIPR assay; type: functional, cell-based

Compound | inhibition [1] | inhibition [2]
COc1ccc(CCNc2ncnc3c2CN(c2ccc(C)cn2)CC3)cc1 | > 75% | –
Cc1ccc(N2CCc3ncnc(N(C)Cc4ccc(Cl)cc4)c3C2)nc1 | 0% | –
COc1ccc(CCNc2ncnc3c2CN(c2ccc(C)cn2)CC3)cc1OC | 50% | –
Cc1ccc(N2CCc3ncnc(N(C)Cc4ccccc4)c3C2)nc1 | 0% | –
Cc1ccc(N2CCc3ncnc(NCCc4ccccc4)c3C2)nc1 | > 75% | –
Cc1ccc(N2CCc3ncnc(N(C)Cc4ccc(C(F)(F)F)cc4)c3C2)nc1 | 0% | –
Cc1ccc(CN(C)c2ncnc3c2CN(c2ccc(C)cn2)CC3)cc1 | 25% | –
Cc1ccc(N2CCc3ncnc(NCc4ccc(OC(F)(F)F)cc4)c3C2)nc1 | 50% | –
CC1(C)C(=O)Nc2cc(Nc3ncnc4c3CN(c3ncccc3Cl)CC4)ccc21 | – | 0%
Cc1ccc(N2CCc3ncnc(NCc4cccc(F)c4)c3C2)nc1 | > 75% | –
Cc1ccc(N2CCc3ncnc(NCc4ccccc4OC(F)(F)F)c3C2)nc1 | > 75% | –
COc1cc(CNc2ncnc3c2CN(c2ccc(C)cn2)CC3)cc(OC)c1 | 0% | –
Cc1ccc(CNc2ncnc3c2CN(c2ccc(C)cn2)CC3)cc1 | > 75% | –
Cc1ccc(N2CCc3ncnc(NC(C)c4ccc(F)cc4)c3C2)nc1 (centres undefined) | > 75% | –
Cc1ccc(N2CCc3ncnc(NCc4cccc(F)c4F)c3C2)nc1 | > 75% | –
Cc1ccc(N2CCc3ncnc(NCc4cc(Cl)cc(Cl)c4)c3C2)nc1 | 0% | –
Cc1ccc(N2CCc3ncnc(NCc4cccc(Cl)c4)c3C2)nc1 | > 75% | –
Cc1ccc(N2CCc3ncnc(NCc4ccc(Cl)cc4F)c3C2)nc1 | 50% | –
Cc1ccc(N2CCc3ncnc(NCc4cc(C(F)(F)F)cc(C(F)(F)F)c4)c3C2)nc1 | 0% | –
Cc1ccc(N2CCc3ncnc(NCc4cc(F)ccc4F)c3C2)nc1 | 50% | –
Cc1ccc(N2CCc3ncnc(NCc4ccc(C(F)(F)F)cc4)c3C2)nc1 | > 75% | –
FC(F)(F)c1ccc(Nc2ncnc3c2CN(c2ncccc2Cl)CC3)cn1 | – | 0%
Cc1ccc(N2CCc3ncnc(NCc4ccc(F)c(C(F)(F)F)c4)c3C2)nc1 | 0% | –
Cc1ccc(N2CCc3ncnc(N(C)Cc4ccc(F)cc4)c3C2)nc1 | 0% | 50%
Cc1ccc(N2CCc3ncnc(NCc4ccccc4Cl)c3C2)nc1 | > 75% | –
CN1CC(C)(C)c2ccc(Nc3ncnc4c3CN(c3ncccc3Cl)CC4)cc21 | 0% | –
Cc1ccc(N2CCc3ncnc(NCCc4cccc(C(F)(F)F)c4)c3C2)nc1 | > 75% | > 75%
Cc1ccc(N2CCc3ncnc(NCc4ccc(C(C)(C)C)cc4)c3C2)nc1 | 0% | –

Other lines, results leading:

inhibition [1] | inhibition [2] | Compound
50% | – | Cc1ccc(N2CCc3ncnc(NCc4cc(Cl)ccc4F)c3C2)nc1
50% | – | Cc1ccc(N2CCc3ncnc(NCc4ccccc4C(F)(F)F)c3C2)nc1
> 75% | – | Cc1ccc(N2CCc3ncnc(NCCc4ccc(Cl)cc4)c3C2)nc1
> 75% | > 75% | Cc1ccc(N2CCc3ncnc(NCCc4ccccc4Cl)c3C2)nc1
– | > 75% | Cc1ccc(N2CCc3ncnc(NCc4ccccc4C)c3C2)nc1
0% | – | Cc1ccc(N2CCc3ncnc(NCc4ccc(Cl)cc4Cl)c3C2)nc1
0% | 0% | Cc1ccc(N2CCc3ncnc(NCc4cc(C(F)(F)F)ccc4Cl)c3C2)nc1
> 75% | – | Cc1ccc(N2CCc3ncnc(NCc4ccccc4OC(F)F)c3C2)nc1
0% | – | COc1ccc(CN(C)c2ncnc3c2CN(c2ccc(C)cn2)CC3)cc1
> 75% | > 75% | COc1cccc(CNc2ncnc3c2CN(c2ccc(C)cn2)CC3)c1
25% | – | Cc1ccc(N2CCc3ncnc(NCc4ccc(C)cc4C)c3C2)nc1
> 75% | – | COc1cccc(CCNc2ncnc3c2CN(c2ccc(C)cn2)CC3)c1
0% | – | COc1cccc(CN(C)c2ncnc3c2CN(c2ccc(C)cn2)CC3)c1
50% | – | Cc1ccc(N2CCc3ncnc(NCCc4ccc(Cl)c(Cl)c4)c3C2)nc1
– | 0% | Cc1ccccc1N1CCc2ncnc(Nc3ccc(C(F)(F)F)cc3)c2C1
0% | – | CCc1ccc(CN(C)c2ncnc3c2CN(c2ccc(C)cn2)CC3)cc1
> 75% | – | Cc1ccc(N2CCc3ncnc(NCc4ccc(F)c(C)c4)c3C2)nc1
> 75% | – | Cc1ccc(N2CCc3ncnc(NCc4ccc5c(c4)OCO5)c3C2)nc1
> 75% | – | Cc1ccc(N2CCc3ncnc(NCc4ccc(C(F)(F)F)cc4F)c3C2)nc1
> 75% | – | COc1ccc(CNc2ncnc3c2CN(c2ccc(C)cn2)CC3)cc1

inhibition [1] | inhibition [2] | Compound
50% | – | Cc1ccc(N2CCc3ncnc(NCc4cccc(C(F)(F)F)c4)c3C2)nc1
> 75% | – | Cc1ccc(CCNc2ncnc3c2CN(c2ccc(C)cn2)CC3)cc1
0% | – | Cc1ccc(N2CCc3ncnc(NCc4cccc(C)c4C)c3C2)nc1
> 75% | – | Cc1ccc(N2CCc3ncnc(NCc4ccc(Cl)cc4)c3C2)nc1
– | 0% | Cc1ccc(N2CCc3ncnc(Nc4ccc(C(F)(F)F)cc4)c3C2)cc1
0% | – | Cc1ccc(N2CCc3ncnc(NCc4ccc(Cl)c(Cl)c4)c3C2)nc1
25% | > 75% | COc1ccc(CN(C)c2ncnc3c2CN(c2ccc(C)cn2)CC3)cc1OC
> 75% | – | Cc1ccc(N2CCc3ncnc(NCc4ccc(F)c(F)c4)c3C2)nc1
0% | – | Cc1ccc(N2CCc3ncnc(N(C)Cc4cccc(Cl)c4)c3C2)nc1
0% | – | COc1ccccc1CN(C)c1ncnc2c1CN(c1ccc(C)cn1)CC2
– | 0% | CC1(C)CNc2cc(Nc3ncnc4c3CN(c3ncccc3Cl)CC4)ccc21
– | > 75% | COc1ccccc1CNc1ncnc2c1CN(c1ccc(C)cn1)CC2
0% | – | Cc1ccc(N2CCc3ncnc(NCc4cc(F)cc(C(F)(F)F)c4)c3C2)nc1
0% | – | Cc1ccc(N2CCc3ncnc(NCc4ccc(C(C)C)cc4)c3C2)nc1
50% | – | COc1cc(CCNc2ncnc3c2CN(c2ccc(C)cn2)CC3)cc(OC)c1
– | 0% | Cc1ccc(N2CCc3ncnc(NCC4(O)CCCC(C)(C)C4)c3C2)nc1 (centres undefined)
0% | – | Clc1cccnc1N1CCc2ncnc(Nc3ccccc3)c2C1
0% | – | Cc1ccc(N2CCc3ncnc(NCc4cc(C(F)(F)F)ccc4F)c3C2)nc1
– | > 75% | Cc1ccc(N2CCc3ncnc(NCC4CCCCC4)c3C2)nc1
0% | – | O=S(=O)(c1ccc(Nc2ncnc3c2CN(c2ncccc2Cl)CC3)cc1)C(F)(F)F

From ChEMBL document CHEMBL3727362, “Tetrahydronaphthyridine and tetrahydropyrido[4,3-D]pyrimidine compounds and compositions thereof useful for the treatment of inflammatory and respiratory diseases” (2014)
